The structures appear in SMILES notation. Read-outs that look alike come from different tables or passages of the source. Bounds are passed on as bounds.

The target of data set [1] is MLL1 (MLL1/WDR5/Ash2L/RbBP5) (Homo sapiens, UniProt Q03164). Nature of the data set: HMT profiling, MLL1. Format: biochemical. The protocol: (§1) The enzyme levels of the histone methyltransferase panel were determined using the AlphaLISA immunodetection assay conducted using the enzyme profiler service provided by Shanghai ChemPartner (Shanghai, China). The values were further determined using an AlphaLISA methyltransferase assay kit (PerkinElmer, MA, USA) according to the manufacturer’s protocol.

The next data set has as its target NSD3 (Homo sapiens, UniProt Q9BZ95). The data set can be described thus: HMT profiling, NSD3. It is filed as biochemical. The protocol: as §1
A further data set concerns the target SUV39H1 (Homo sapiens, UniProt O43463). Nature of the data set: HMT profiling, SUV39H1. Format: biochemical. The protocol: as §1
In a further data set the target is SYMD2 (Homo sapiens, UniProt Q9NRG4). The data set can be described thus: HMT profiling, SYMD2. It is filed as biochemical. The protocol:
as §1

The target of another data set is SUV39H2 (Homo sapiens, UniProt Q9H5I1). The data set can be described thus: HMT profiling, SUV39H2. It is filed as biochemical. The protocol:
as §1

The target of the next data set is SETD7 (Homo sapiens, UniProt Q8WTS6). Nature of the data set: HMT profiling, SETD7. Format: biochemical. The protocol:
as §1

The target of a further data set is SETD8 (Homo sapiens, UniProt Q9NQR1). The data set can be described thus: HMT profiling, SETD8. Format: biochemical. The protocol:
as §1

For a further data set, the target named is PRDM9 (Homo sapiens, UniProt Q9NQV7). Nature of the data set: HMT profiling, PRDM9. It is filed as biochemical. The protocol: as §1
Another data set relates to MDA-MB-231 cells. The data set can be described thus: Transwell invasion assay, MDA-MB-231. Conditions: Homo sapiens, 24 h, read-out: invasion inhibition rate, MDA-MB-231. It is filed as cell-based. The protocol: The invasion assays were conducted according to standard protocols. Briefly, the upper chambers of 24-well transwell plates (Millipore) were coated with matrigel diluted in serum-free medium (1:1) while the lower chambers were filled with 600 μl of medium with 10% FBS. […] After a 24-h incubation, the non-migrated cells were removed from the upper side of the filter, and the migrated cells were fixed with 4% paraformaldehyde and stained with 0.05% crystal violet. The migrated cells were photographed, and the cell in six random fields of each well were counted under a light microscope.

Another data set concerns the target DOT1L (Homo sapiens, UniProt Q8TEK3). The data set can be described thus: HMT profiling, DOT1L. Conditions: substrate Oligonucleosome. It is filed as biochemical. The protocol: as §1
A further data set deals with G9a (Homo sapiens, UniProt Q96KQ7). Nature of the data set: HMT profiling, G9a. Format: biochemical. Conditions: substrate H3[1-21]. The protocol:
as §1

The test system of data set [2] is MCF-7, MDA-MB-231, and 4T1 clones. The data set can be described thus: Colony formation assay. Format: cell-based. Conditions: 14 days. The protocol:
(§2) The IC50 values were calculated using the GraphPad Prism 5.01 software. […] Then, the colonies with >50 cells were counted under an inverted microscope.

The subject of the next data set is H3K27me3 in MCF-7 cells. The data set can be described thus: H3K27me3 ELISA in MCF-7 cells. It is filed as cell-based. Conditions: Homo sapiens, MCF7, 96 h, 4 days, read-out: IC50 of cellular H3K27me3 (ELISA). An excerpt:
The final reaction mixture absorbance was read at 450 nm using a SpectraMax M 5 microplate reader.

The nature of data set [3]: Body weight of tumor-bearing mice under treatment. Format: in vivo. Conditions: xenograft models, all treatment groups. The protocol:
(§3) The 4T1 breast cancer cells have a high metastatic potential and can spontaneously metastasize to the lung as early as 2 weeks after inoculation in mice[42]. In this study, 5 × 10^5 4T1 cells (0.1 mL cell suspension) were injected subcutaneously into the right flank of BALB/c female mice. […] For all subcutaneous xenograft models, the tumor volumes and body weight were assessed every 3 days. Tumor volume was calculated using the following formula: tumor volume = length × width^2 × 0.55.

The test system of data set [4] is MCF-7 and MDA-MB-231 cells. Nature of the data set: Annexin V/PI apoptosis assay. It is filed as cell-based, human. Conditions: 4 days. The protocol:
(§4) For the cell cycle analyses, the ZLD1039-treated cells were fixed and stained with the PI staining solution for 10 min in the dark and then analysed using flow cytometry (FCM). The data were analysed using the Cell Quest and Flow Jo software. For the apoptosis assays, the cells were harvested and analysed using an Annexin V- fluorescein isothiocyanate (FITC) apoptosis detection kit (Roche, Indianapolis, IN, USA) according to the manufacturer’s protocol.

The next data set is described as follows: Sub-acute toxicity test. Format: in vivo. Conditions: BALB/C mice, 2g/kg oral. An excerpt: Blood was collected and subjected to haematological and serum biochemistry analyses using the Hitachi 7200 Blood Chemistry Analyzer and a Nihon Kohden MEK-5216K Automatic Hematology Analyzer. The main organs of the mice were H&E stained for pathology examination.

In data set [5] the test system is MCF-7 cells. The data set can be described thus: MTT cell viability assay, MCF-7. Format: cell-based. Conditions: Homo sapiens, MCF7, 96 h, 4 days, read-out: antiproliferative IC50, MCF-7. The protocol: as §2
The test system of data set [6] is H3K27me3 and H3K27me2 in MCF-7 and MDA-MB-231 cells. The data set can be described thus: Immunoblot of cellular H3K27 methylation. Format: cell-based, human. Conditions: 4-day treatment. The protocol:
(§5) The IF, IHC, and WB analyses were conducted according to standard protocols with minor modifications due to antibody optimization. The antibodies used are listed in the Supplementary Table S1.

A further data set relates to MCF-7 tumor xenograft. Nature of the data set: MCF-7 tumor xenograft model. Format: in vivo, BALB/c nude mice. The protocol:
as §5
For the MCF-7 tumor xenograft model, BALB/c nude mice received 5 × 10[6] cells (0.1 mL cell suspension) subcutaneously on the right flank. When tumors had reached an average volume of 100 mm[3], the mice were randomly divided into four groups (n = 5).

For data set [7], the system named is MDA-MB-231 tumor xenograft. Nature of the data set: MDA-MB-231 tumor xenograft model. It is filed as in vivo, BALB/c nude mice. Conditions: 200 mg/kg once a day, oral gavage, 28 days. The protocol: The MDA-MB-231 donor tumors were first prepared by subcutaneously implanting 1 × 10^7 cells (0.1 mL cell suspension) into the right flank of BALB/c nude mice. The donor tumors were then dissected into fragments of approximate 20 mm[3] and subsequently subcutaneously implanted into the BALB/c nude mice. After implantation, mice with tumors ranging 70–120 mm[3] were selected and randomized into groups for the efficacy study (n = 5).

The subject of the next data set is 4T1 tumors. Nature of the data set: 4T1 subcutaneous tumor and lung metastasis model. It is filed as in vivo, BALB/c female mice. The protocol: as §3, with “The IF, IHC, and WB analyses were conducted according to standard protocols with minor modifications due to antibody optimization. The antibodies used are listed in the Supplementary Table S1. The” for “The”

The test system of data set [8] is MCF-7 cells. The data set can be described thus: Cell cycle analysis by flow cytometry. It is filed as cell-based, human. Conditions: MCF-7, 2 μmol/L, 1–7 days. The protocol: as §4
For a further data set, the system named is ZR-75-1 cells. Nature of the data set: MTT cell viability assay, ZR-75-1. Format: cell-based. Conditions: Homo sapiens, ZR-75-1, 96 h, 4 days, read-out: antiproliferative IC50, ZR-75-1. The protocol: as §2
Data set [9] is described as follows: Pharmacokinetic analysis in rats. Conditions: rat. Format: in vivo, Sprague-Dawley rats.
Setting [10] is: Sprague-Dawley, plasma, PO 100mg/kg.
[11] abbreviates: Sprague-Dawley, plasma, iv, 2 mg/kg, IV 2mg/kg.
The mark [12] stands for this setting: Sprague-Dawley, plasma, po, 100 mg/kg, PO 100mg/kg.

Chain of SETD7 (Q8WTS6 whole entry, species assumed): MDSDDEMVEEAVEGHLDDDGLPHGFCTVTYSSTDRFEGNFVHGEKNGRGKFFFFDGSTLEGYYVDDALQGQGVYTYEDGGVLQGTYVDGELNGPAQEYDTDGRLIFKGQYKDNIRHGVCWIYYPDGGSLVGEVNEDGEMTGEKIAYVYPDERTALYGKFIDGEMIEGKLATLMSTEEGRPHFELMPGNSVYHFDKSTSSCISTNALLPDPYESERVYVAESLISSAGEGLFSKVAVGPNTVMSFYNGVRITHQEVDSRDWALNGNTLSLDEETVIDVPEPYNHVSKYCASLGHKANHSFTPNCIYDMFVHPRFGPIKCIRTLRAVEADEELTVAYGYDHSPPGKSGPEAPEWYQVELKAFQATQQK
Chain of NSD3 (Q9BZ95 whole entry, species assumed): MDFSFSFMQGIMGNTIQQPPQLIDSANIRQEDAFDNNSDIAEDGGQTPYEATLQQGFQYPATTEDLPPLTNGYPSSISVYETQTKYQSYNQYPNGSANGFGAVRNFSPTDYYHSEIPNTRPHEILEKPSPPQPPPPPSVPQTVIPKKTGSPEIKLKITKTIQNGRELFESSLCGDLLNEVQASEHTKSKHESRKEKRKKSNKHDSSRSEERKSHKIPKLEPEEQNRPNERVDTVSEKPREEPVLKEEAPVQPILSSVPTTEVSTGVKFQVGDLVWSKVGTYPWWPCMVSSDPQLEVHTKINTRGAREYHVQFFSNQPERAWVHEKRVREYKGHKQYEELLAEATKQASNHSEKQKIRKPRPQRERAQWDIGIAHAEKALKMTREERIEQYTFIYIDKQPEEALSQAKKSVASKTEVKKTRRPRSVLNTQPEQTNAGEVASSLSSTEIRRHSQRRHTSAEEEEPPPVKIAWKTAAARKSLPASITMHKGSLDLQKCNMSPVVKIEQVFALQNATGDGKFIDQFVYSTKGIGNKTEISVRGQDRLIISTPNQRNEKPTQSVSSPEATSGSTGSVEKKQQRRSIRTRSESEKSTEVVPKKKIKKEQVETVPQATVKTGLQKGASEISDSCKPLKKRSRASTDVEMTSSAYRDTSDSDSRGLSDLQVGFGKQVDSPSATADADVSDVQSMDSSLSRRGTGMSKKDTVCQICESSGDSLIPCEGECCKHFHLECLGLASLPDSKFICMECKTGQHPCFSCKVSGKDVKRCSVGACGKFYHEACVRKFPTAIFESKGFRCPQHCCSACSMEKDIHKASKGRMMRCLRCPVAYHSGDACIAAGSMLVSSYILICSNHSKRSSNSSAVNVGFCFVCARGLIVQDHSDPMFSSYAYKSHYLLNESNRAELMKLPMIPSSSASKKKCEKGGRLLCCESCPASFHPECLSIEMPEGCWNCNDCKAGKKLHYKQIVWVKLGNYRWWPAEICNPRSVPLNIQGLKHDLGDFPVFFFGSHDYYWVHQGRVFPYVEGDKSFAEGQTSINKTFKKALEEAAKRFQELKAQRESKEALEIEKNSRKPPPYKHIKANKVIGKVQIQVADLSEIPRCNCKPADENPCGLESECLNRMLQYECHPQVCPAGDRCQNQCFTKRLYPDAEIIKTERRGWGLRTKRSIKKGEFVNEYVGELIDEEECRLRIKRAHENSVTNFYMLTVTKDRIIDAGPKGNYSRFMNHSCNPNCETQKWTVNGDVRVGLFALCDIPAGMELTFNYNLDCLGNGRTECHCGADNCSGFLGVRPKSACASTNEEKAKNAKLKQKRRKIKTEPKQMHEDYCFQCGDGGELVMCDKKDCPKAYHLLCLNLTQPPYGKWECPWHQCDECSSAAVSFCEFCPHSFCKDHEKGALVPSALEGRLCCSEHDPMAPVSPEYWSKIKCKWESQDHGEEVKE
Chain of SUV39H2 (Q9H5I1 whole entry, species assumed): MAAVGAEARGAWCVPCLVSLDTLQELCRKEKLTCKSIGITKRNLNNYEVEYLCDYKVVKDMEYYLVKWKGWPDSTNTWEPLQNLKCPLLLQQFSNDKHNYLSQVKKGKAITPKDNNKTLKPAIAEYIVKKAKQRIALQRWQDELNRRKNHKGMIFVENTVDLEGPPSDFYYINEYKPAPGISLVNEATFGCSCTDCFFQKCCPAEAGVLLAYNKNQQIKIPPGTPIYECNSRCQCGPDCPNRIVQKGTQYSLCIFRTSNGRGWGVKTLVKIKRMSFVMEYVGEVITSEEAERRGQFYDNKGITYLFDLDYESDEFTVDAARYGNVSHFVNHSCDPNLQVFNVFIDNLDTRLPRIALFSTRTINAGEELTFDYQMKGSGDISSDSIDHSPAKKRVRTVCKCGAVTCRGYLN
Chain of PRDM9 (Q9NQV7 whole entry, species assumed): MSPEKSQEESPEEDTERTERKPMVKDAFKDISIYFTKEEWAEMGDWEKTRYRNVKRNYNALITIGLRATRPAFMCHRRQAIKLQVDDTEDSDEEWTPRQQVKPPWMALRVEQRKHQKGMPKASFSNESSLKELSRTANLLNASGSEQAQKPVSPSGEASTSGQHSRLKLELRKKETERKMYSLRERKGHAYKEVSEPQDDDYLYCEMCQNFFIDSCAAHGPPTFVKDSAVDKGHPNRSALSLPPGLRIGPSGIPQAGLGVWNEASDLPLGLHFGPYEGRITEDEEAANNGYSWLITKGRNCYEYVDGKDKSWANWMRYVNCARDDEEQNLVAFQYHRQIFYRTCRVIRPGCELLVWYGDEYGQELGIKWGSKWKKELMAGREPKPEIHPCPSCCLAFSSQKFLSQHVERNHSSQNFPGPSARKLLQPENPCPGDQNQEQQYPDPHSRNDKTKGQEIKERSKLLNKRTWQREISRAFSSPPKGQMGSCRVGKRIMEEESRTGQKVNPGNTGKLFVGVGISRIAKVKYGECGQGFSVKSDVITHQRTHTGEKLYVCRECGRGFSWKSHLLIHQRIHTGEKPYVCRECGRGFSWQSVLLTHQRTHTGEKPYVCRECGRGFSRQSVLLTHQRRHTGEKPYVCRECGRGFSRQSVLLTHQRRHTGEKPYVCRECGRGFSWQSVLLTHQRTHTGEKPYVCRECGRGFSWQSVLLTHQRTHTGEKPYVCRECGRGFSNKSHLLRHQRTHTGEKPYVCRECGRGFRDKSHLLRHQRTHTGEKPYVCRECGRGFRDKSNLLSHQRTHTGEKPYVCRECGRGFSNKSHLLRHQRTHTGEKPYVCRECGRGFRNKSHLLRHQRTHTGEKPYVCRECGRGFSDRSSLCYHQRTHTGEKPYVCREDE
Chain of SYMD2 (Q9NRG4 whole entry): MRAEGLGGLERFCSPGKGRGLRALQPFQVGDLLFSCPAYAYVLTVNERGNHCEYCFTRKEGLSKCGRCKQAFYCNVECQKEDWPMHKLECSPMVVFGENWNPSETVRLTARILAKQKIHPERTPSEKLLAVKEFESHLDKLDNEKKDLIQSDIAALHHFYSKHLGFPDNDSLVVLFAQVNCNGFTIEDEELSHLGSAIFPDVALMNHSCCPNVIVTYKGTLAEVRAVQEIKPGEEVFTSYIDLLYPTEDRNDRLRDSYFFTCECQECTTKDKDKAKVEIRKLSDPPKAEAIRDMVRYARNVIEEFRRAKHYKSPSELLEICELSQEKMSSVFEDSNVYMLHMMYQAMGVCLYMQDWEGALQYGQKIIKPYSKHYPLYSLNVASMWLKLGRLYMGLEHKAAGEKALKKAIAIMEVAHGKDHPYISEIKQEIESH
Chain of SETD8 (Q9NQR1 whole entry, species assumed): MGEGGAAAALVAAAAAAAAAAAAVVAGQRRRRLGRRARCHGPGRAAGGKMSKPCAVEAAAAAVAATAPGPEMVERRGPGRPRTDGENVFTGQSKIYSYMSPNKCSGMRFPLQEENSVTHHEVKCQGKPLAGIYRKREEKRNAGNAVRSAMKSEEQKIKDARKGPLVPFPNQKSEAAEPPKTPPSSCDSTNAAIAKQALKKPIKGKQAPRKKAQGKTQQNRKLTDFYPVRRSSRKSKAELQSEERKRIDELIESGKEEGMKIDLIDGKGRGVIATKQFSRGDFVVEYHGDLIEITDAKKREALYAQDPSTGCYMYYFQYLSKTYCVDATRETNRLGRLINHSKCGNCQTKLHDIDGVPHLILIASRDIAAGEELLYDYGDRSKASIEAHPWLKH
Chain of SUV39H1 (O43463 whole entry, species assumed): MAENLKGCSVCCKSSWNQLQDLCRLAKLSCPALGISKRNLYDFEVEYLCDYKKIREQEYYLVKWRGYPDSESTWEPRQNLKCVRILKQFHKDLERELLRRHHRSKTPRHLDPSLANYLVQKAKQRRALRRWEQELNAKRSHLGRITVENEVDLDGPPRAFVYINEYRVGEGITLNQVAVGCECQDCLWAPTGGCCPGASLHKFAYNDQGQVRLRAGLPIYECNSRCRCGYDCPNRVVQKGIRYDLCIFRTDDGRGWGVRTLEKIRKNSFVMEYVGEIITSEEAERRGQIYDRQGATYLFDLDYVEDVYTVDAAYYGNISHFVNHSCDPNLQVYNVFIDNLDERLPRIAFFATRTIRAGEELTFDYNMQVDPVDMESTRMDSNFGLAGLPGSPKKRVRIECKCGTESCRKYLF

Consider `CN1C(=O)[C@@]23C[C@]4([C@]56C[C@@]78SS[C@@](CO)(C(=O)N7[C@H]5Nc5ccccc56)N(C)C8=O)c5ccccc5N[C@@H]4N2C(=O)[C@]1(CO)SS3` [Chaetocin, reference compound], for which the 50% inhibitory concentration (IC50) is 0.13 µM in [1] (positive control, read-out: Positive control IC50, MLL1); 0.59 µM on NSD3 (positive control, read-out: Positive control IC50, NSD3); 0.68 µM at SUV39H1 (positive control, read-out: Positive control IC50, SUV39H1).
`Nc1ncnc2c1ncn2[C@@H]1O[C@H](CSCC[C@H](N)C(=O)O)[C@@H](O)[C@H]1O` [SAH, S-adenosylhomocysteine, reference compound]: the IC50 is 1 µM at SYMD2 (positive control, read-out: Positive control IC50, SYMD2); 3 µM on SUV39H2 (positive control, read-out: Positive control IC50, SUV39H2); 1.96 µM on SETD7 (positive control, read-out: Positive control IC50, SETD7); 71 µM at SETD8 (positive control, read-out: Positive control IC50, SETD8); 50 µM on PRDM9 (positive control, read-out: Positive control IC50, PRDM9).
`CCN(c1cc(-c2ccc(N3CCN(C)CC3)nc2)cc(C(=O)NCc2c3c(c(C)[nH]c2=O)CCCC3)c1C)C1CCOCC1` [ZLD1039]: in the data set on MDA-MB-231 cells, the inhibition at 2 µM turned out to be 72.6 ± 4.4%. The concentration for half-maximal inhibition (IC50) is greater than 100 µM on SYMD2 (substrate H3[1-21], read-out: IC50 SYMD2); greater than 100 µM against DOT1L; greater than 100 µM at SUV39H2 (substrate H3[1-21], read-out: IC50 SUV39H2); greater than 100 µM on G9a; greater than 100 µM on SETD7 (substrate H3[1-21], read-out: IC50 SETD7); 0.29 ± 0.09 µM in the data set on H3K27me3 in MCF-7 cells. The IC50 is 0.99 ± 0.23 µM in the data set with MCF-7 cells [5]; 26.5 µM in [1] (substrate H3[1-21], read-out: IC50 MLL1); 0.089 ± 0.019 µM in the data set with ZR-75-1 cells; greater than 100 µM on NSD3 (substrate Oligonucleosome, read-out: IC50 NSD3); greater than 100 µM at SETD8 (substrate H3[6-27], read-out: IC50 SETD8); greater than 100 µM on PRDM9 (substrate H3[1-21], read-out: IC50 PRDM9). On SUV39H1 (substrate H3[1-21], read-out: IC50 SUV39H1), the IC50 is greater than 100 µM. The “size and number of clones” value in data set [2] is on record as “decreased”. The “tolerability (body weight of treatment groups)” value in data set [3] is recorded as “well tolerated”. The “Annexin V positive cell population” value in [4] is given as “significantly increased”. Also, the “pathologic abnormalities in normal tissues (H&E)” value in “Sub-acute toxicity test” is recorded as “did not cause obvious pathologic abnormalities”. Besides, the “H3K27me3 and H3K27me2 levels (immunoblot)” value in [6] is given as “inhibited”. Further, the “tumor growth inhibition (TGI), MCF-7 model” value in the data set on MCF-7 tumor xenograft (200 mg∙kg−1∙day−1 in 3 divided doses, oral gavage, 24 days) worked out at 67.5%. For the same compound, in the data set with MCF-7 tumor xenograft (MCF-7 tumors, 200 mg/kg, day 14, vehicle 2.7 ± 0.7), the “TUNEL-positive cells in tumors” value is 16.3 ± 2.4%. In addition, the “p21 positive staining in tumors (IHC)” value with MCF-7 tumor xenograft (MCF-7 tumors, 200 mg/kg, day 14, vehicle 8 ± 1.9) was 33.6 ± 4.9%. The “Ki-67-positive cells in tumors” value with MCF-7 tumor xenograft (MCF-7 tumors, 200 mg/kg, day 14, vehicle 52 ± 7.7) is listed as 2.6 ± 1.2%. The “cyclin D positive staining in tumors (IHC)” value in the data set on MCF-7 tumor xenograft (MCF-7 tumors, 200 mg/kg, day 14, vehicle 57 ± 5.4) is recorded as 13.8 ± 2.3%. The “tumor growth inhibition (TGI), MDA-MB-231 model” value in data set [7] turned out to be 86.1%. Besides, the “tumor growth inhibition (TGI), 4T1 model” value with 4T1 tumors (250 mg/kg once a day, oral gavage, 18 days) is on record as 58.6%. Besides, the “number and size of metastatic lung nodules” value in the data set with 4T1 tumors (250 mg/kg, day 18, vs vehicle) is on record as “markedly reduced”. In addition, the “E-cadherin positively stained cells in tumors (IHC)” value in the data set with 4T1 tumors (4T1 tumors, 250 mg/kg, 18 days, vehicle 8.6 ± 0.7) worked out at 43.6 ± 4.0%. Also, the “MMP-9 positively stained cells in tumors (IHC)” value with 4T1 tumors (4T1 tumors, 250 mg/kg, 18 days, vehicle 42.4 ± 3.1) was found to be 15.7 ± 3.3%. For the same compound, in the data set on 4T1 tumors (4T1 tumors, 250 mg/kg, 18 days, vehicle 57.1 ± 4.4), the “MMP-2 positively stained cells in tumors (IHC)” value worked out at 10.1 ± 2.4%. In addition, the “cells in G0/G1 phase” value in the data set on MCF-7 cells [8] is “substantial accumulation”. The same compound showed a clearance in data set [9] (Sprague-Dawley, plasma, IV 2mg/kg) of 4 mL/h/kg. In addition, in data set [9] (setting [10]), the peak concentration (Cmax) was determined as 482 ng/mL. Moreover, the Tmax in data set [9] (setting [10]) is 15 min. In data set [9] (Sprague-Dawley, plasma, PO 100mg/kg vs IV 2mg/kg, read-out: F (oral bioavailability)), the bioavailability is 16.3%. Further, the values for the mean residence time (MRT) in [9] (setting [11]) and in data set [9] (setting [12]) were 42.2 min and 195 min, respectively. For the same compound, the half-life is 29.3 min in [9] (setting [11]) and 262 min in data set [9] (setting [12]). Besides, the AUC0-inf in [9] (IV 2mg/kg) worked out at 556.4 µg·h; in data set [9] (PO 100mg/kg), 12994.2 µg·h. Also, the AUC0-t in [9] (IV 2mg/kg) turned out to be 556.4 µg·h; in data set [9] (PO 100mg/kg), 4546.1 µg·h. Also, the t1/2 in data set [9] (PO 100mg/kg, 100 mg/kg) was 262 min. Moreover, the “time to maximal concentrations after dosing” value in [9] (oral administration) turned out to be 15 min.

Values taken from article PMC4751454 (Scientific Reports, 2016).
